Counter-ions that a name gives are not always drawn.
Key:
MRSA NRS123 (USA400) = test: Time-kill analysis
[1] = tested on: methicillin-resistant Staphylococcus aureus (MRSA); test: Single-step resistance selection; type: cell-based; conditions: 4 × MIC; for Single-step frequency of resistance: resistant colonies per inoculum
[2] = tested on: S. aureus (MRSA, VISA and VRSA strains); test: MIC, broth microdilution; type: cell-based, Staphylococcus aureus
[3] = tested on: S. epidermidis ATCC 35984; test: MIC, broth microdilution; type: cell-based; conditions: Staphylococcus epidermidis, ATCC35984
[4] = tested on: S. aureus (MRSA, VISA and VRSA strains); test: MBC, plating from MIC wells; type: cell-based, Staphylococcus aureus
[5] = Staphylococcus aureus, ATCC43300|MRSA|VISA|VRSA
[6] = Staphylococcus aureus, MRSA|NRS107|VISA|VRSA
[7] = Staphylococcus aureus, MRSA|NRS119|VISA|VRSA
[8] = Staphylococcus aureus, MRSA|NRS123|USA400|VISA|VRSA
[9] = Staphylococcus aureus, MRSA|NRS194|VISA|VRSA
[10] = Staphylococcus aureus, MRSA|NRS384|USA300|VISA|VRSA
[11] = Staphylococcus aureus, MRSA|NRS385|USA500|VISA|VRSA

## CN[C@H](CC(C)C)C(=O)N[C@H]1C(=O)N[C@@H](CC(N)=O)C(=O)N[C@H]2C(=O)N[C@H]3C(=O)N[C@H](C(=O)N[C@H](C(=O)O)c4cc(O)cc(O)c4-c4cc3ccc4O)[C@H](O)c3ccc(c(Cl)c3)Oc3cc2cc(c3O[C@@H]2O[C@H](CO)[C@@H](O)[C@H](O)[C@H]2O[C@H]2C[C@](C)(N)[C@H](O)[C@H](C)O2)Oc2ccc(cc2Cl)[C@H]1O [Vancomycin, vancomycin hydrochloride]
MRSA NRS123 (USA400); 2 × MIC
  Time to 3-log10 reduction in CFUml^−1: ≤ 24 h
  Time to complete elimination of MRSA: not able to eliminate all bacteria completely
MRSA NRS123 (USA400); 4 × MIC
  Time to complete elimination of MRSA: 24 h
MRSA NRS123 (USA400); 8 × MIC
  Time to complete elimination of MRSA: 24 h
[1]; MRSA NRS119
  Single-step frequency of resistance: >8.47×10^−10
[1]; MRSA NRS123 (USA400)
  Single-step frequency of resistance: >2.33×10^−10
[1]; MRSA NRS384 (USA300)
  Single-step frequency of resistance: 3.03×10^−10
[1]; MRSA NRS385 (USA500)
  Single-step frequency of resistance: >3.31×10^−10
[2]; [5]
  MIC: 0.74 µg/mL
[2]; [6]
  MIC: 0.74 µg/mL
[2]; [7]
  MIC: 0.74 µg/mL
[2]; [8]
  MIC: 0.37 µg/mL
[2]; [9]
  MIC: 0.74 µg/mL
[2]; [10]
  MIC: 0.74 µg/mL
[2]; [11]
  MIC: 0.74 µg/mL
[3]
  MIC: 0.74 µg/mL
[4]; [5]
  MBC: 0.74 µg/mL
[4]; Staphylococcus aureus, MRSA|NRS1|VISA|VRSA
  MBC: 2.97 µg/mL
[4]; Staphylococcus aureus, MRSA|NRS19|VISA|VRSA
  MBC: 2.97 µg/mL
[4]; Staphylococcus aureus, MRSA|NRS37|VISA|VRSA
  MBC: 2.97 µg/mL
[4]; [6]
  MBC: 1.49 µg/mL
[4]; [7]
  MBC: 1.49 µg/mL
[4]; [8]
  MBC: 0.37 µg/mL
[4]; [9]
  MBC: 0.74 µg/mL
[4]; [10]
  MBC: 0.74 µg/mL
[4]; [11]
  MBC: 0.74 µg/mL

## teicoplanin
MRSA NRS123 (USA400); 2 × MIC
  Time to complete elimination of MRSA: 24 h
MRSA NRS123 (USA400); 4 × MIC
  Time to complete elimination of MRSA: 24 h
MRSA NRS123 (USA400); 8 × MIC
  Time to complete elimination of MRSA: 24 h
[1]; MRSA NRS107
  Single-step frequency of resistance: 1.91×10^−8
[1]; MRSA NRS119
  Single-step frequency of resistance: 2.73×10^−7
[1]; MRSA NRS123 (USA400)
  Single-step frequency of resistance: 2.21×10^−9
[1]; MRSA NRS384 (USA300)
  Single-step frequency of resistance: 3.03×10^−9
[1]; MRSA NRS385 (USA500)
  Single-step frequency of resistance: 1.79×10^−8
[1]; five MRSA strains
  Mutation frequency range: 2.73×10^−7 to 3.03×10^−9
[2]; MRSA ATCC 43300
  MIC: 0.94 µg/mL
[2]; MRSA NRS107
  MIC: 0.94 µg/mL
[2]; MRSA NRS119
  MIC: 0.94 µg/mL
[2]; MRSA NRS123 (USA400)
  MIC: 0.94 µg/mL
[2]; MRSA NRS194
  MIC: 0.94 µg/mL
[2]; MRSA NRS384 (USA300)
  MIC: 0.94 µg/mL
[2]; MRSA NRS385 (USA500)
  MIC: 0.94 µg/mL
[2]; VISA NRS1
  MIC: 3.76 µg/mL
[2]; VISA NRS19
  MIC: 0.94 µg/mL
[2]; VISA NRS37
  MIC: 7.52 µg/mL
[2]; VISA strains
  MIC range: 0.94 to 7.52 µg/mL
[2]; VRSA VRS1
  MIC: 120.30 µg/mL
[2]; VRSA VRS4
  MIC: 60.15 µg/mL
[2]; VRSA VRS5
  MIC: 60.15 µg/mL
[2]; all three VRSA strains
  MIC range: 60.51 to 120.30 µg/mL
[4]; MRSA ATCC 43300
  MBC: 3.76 µg/mL
[4]; MRSA NRS107
  MBC: 0.94 µg/mL
[4]; MRSA NRS119
  MBC: 0.94 µg/mL
[4]; MRSA NRS123 (USA400)
  MBC: 15.04 µg/mL
[4]; MRSA NRS194
  MBC: 15.04 µg/mL
[4]; MRSA NRS384 (USA300)
  MBC: 15.04 µg/mL
[4]; MRSA NRS385 (USA500)
  MBC: 3.76 µg/mL
[4]; VISA NRS1
  MBC: 7.52 µg/mL
[4]; VISA NRS19
  MBC: 0.94 µg/mL
[4]; VISA NRS37
  MBC: 7.52 µg/mL
[4]; VRSA VRS1
  MBC: 240.60 µg/mL
[4]; VRSA VRS4
  MBC: 60.15 µg/mL
[4]; VRSA VRS5
  MBC: 60.15 µg/mL
[4]; three strains of MRSA (NRS194, USA300, and USA400)
  MBC relative to MIC: 16 fold
[4]; two additional MRSA strains
  MBC relative to MIC: four

— article PMC4429288 (The Journal of antibiotics, 2014)
